Data taken from patent US20130310256A1, “HERBICIDAL COMPOSITIONS COMPRISING 4-AMINO-3-CHLORO-5-FLUORO-6-(4-CHLORO-2-FLUORO-3-METHOXYPHENYL) PYRIDINE-2-CARBOXYLIC ACID OR A DERIVATIVE THEREOF AND VLCFA AND LIPID SYNTHESIS INHIBITING HERBICIDES” (DOW AGROSCIENCES LLC, priority 2008, published 2013).
Where “and” joins values, the source holds several entries; their conditions need not be identical. Equal entries are not always repeated. Where two headings read alike, the source gives them in different places.

Experiments:
ECHOR = test: Example II: in-water applied weed control, transplanted paddy rice, greenhouse; assay type: in vivo, Echinochloa oryzoides (Ard.) Fritsch (early watergrass)
Outline: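 Transplanted rice and weeds at the first to fourth true leaf stage in flooded mud pots (pH ~7.6 soil), greenhouse ~29/26 °C, 14 h photoperiod. Compound A (acid equivalent) and VLCFA/lipid-synthesis herbicides (active ingredient) injected into the paddy water in 1.25% crop oil concentrate. Injury scored visually at ~3 weeks versus untreated, 0–100%.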

DIGSA = test: Example I: postemergence foliar-applied weed control, greenhouse; assay type: in vivo, Digitaria sanguinalis (L.) Scop. (large crabgrass); settings: 20 DAA
Source text: Seeds or nutlets of the desired test plant species were planted in a soil matrix prepared by mixing a loam or sandy loam soil (e.g., 28.6 percent silt, 18.8 percent clay, and 52.6 percent sand, with a pH of about 5.8 and an organic matter content of about 1.8 percent) and calcareous grit in an 80 to 20 ratio. The soil matrix was contained in plastic pots with a volume of 1 quart and a surface area of 83.6 square centimeters (cm^2). When required to ensure good germination and healthy plants, a fungicide treatment and/or other chemical or physical treatment was applied. The plants were grown for 8-22 days in a greenhouse with an approximate 14 hr photoperiod which was maintained at about 29° C. during the day and 26° C. during the night. Nutrients (Peters Excel® 15-5-15 5-Ca 2-Mg and iron chelate) were applied in the irrigation solution as needed and water was added on a regular basis. Supplemental lighting was provided with overhead metal halide 1000-Watt lamps as necessary. The plants were employed for testing when they reached the first through fourth true leaf stage.
Treatments consisted of the acid or esters of 4-amino-3-chloro-5-fluoro-6-(4-chloro-2-fluoro-3-methoxy-phenyl)pyridine-2-carboxylic acid (Compound A), each formulated as an SC (suspension concentrate), and various herbicidal components alone and in combination. Forms of compound A were applied on an acid equivalent basis.
Other herbicidal components were applied on an active ingredient basis and included very long chain fatty acid (VLCFA) synthesis-inhibiting and fatty acid/lipid synthesis-inhibiting herbicides acetochlor (technical grade material), acetochlor+dichlormid formulated as Topnotch®, pretilachlor (technical grade material), butachlor formulated as Butachlor EC, fentrazamide formulated as Fentrazamide EC, thiobencarb formulated as Bolero® 8EC, cafenstrole formulated as Himeadow® WP or Lapost® Flowable, benfuresate formulated as Full Shot®, dimethenamid-P formulated as Outlook®, indanofan (technical grade material), flufenacet formulated as Define® DF, mefenacet (technical grade material), S-metolachlor formulated as Dual® II Magnum, pethoxamid formulated as Successor® 600, and pyroxasulfone (technical grade material).
Treatment requirements were calculated based upon the rates being tested, the concentration of active ingredient or acid equivalent in the formulation, and a 12 mL application volume at a rate of 187 L/ha.
For treatments comprised of formulated compounds, measured amounts of compounds were placed individually in 25 mL glass vials and diluted in a volume of 1.25% (v/v) Agri-Dex® crop oil concentrated to obtain 12× stock solutions. […] Application solutions were prepared by adding an appropriate amount of each stock solution (e.g., 1 mL) and diluted to the appropriate final concentrations with the addition of 10 mL of an aqueous mixture of 1.25% (v/v) crop oil concentrate so that the final spray solutions contained 1.25+/−0.05% (v/v) crop oil concentrate.
For treatments comprised of technical compounds, weighed amounts can be placed individually in 25 mL glass vials and dissolved in a volume of 97:3 v/v acetone/DMSO to obtain 12× stock solutions. […] Application solutions can be prepared by adding an appropriate amount of each stock solution (e.g., 1 mL) and diluted to the appropriate final concentrations with the addition of 10 mL of an aqueous mixture of 1.5% (v/v) crop oil concentrate so that the final spray solutions contain 1.25% (v/v) crop oil concentrate. When technical materials are used, the concentrated stock solutions can be added to the spray solutions so that the final acetone and DMSO concentrations of the application solutions are […], respectively. […]

CCS(=O)(=O)Oc1ccc2c(c1)C(C)(C)CO2 [Benfuresate, 2,3-dihydro-3,3-dimethyl-5-benzofuranyl ethanesulfonate]
pest or weed control at 150 g/ha (ECHOR; Echinochloa oryzoides, 528 h, 150 gai/ha (Full Slot), 22 DAA, read-out: Visual Weed Control ECHOR Obs): 0%

CCN(CC)C(=O)n1cnc(S(=O)(=O)c2c(C)cc(C)cc2C)n1 [Cafenstrole, N,N-diethyl-3-[(2,4,6-trimethylphenyl)sulfonyl]-1H-1,2,4-triazole-1-carboxamide]
pest or weed control at 52.5 g/ha (ECHOR; Echinochloa oryzoides, 504 h, 52.5 gai/ha (Himeadow WP), 21 DAA, read-out: Visual Weed Control ECHOR Obs): 10%
pest or weed control at 52.5 g/ha (ECHOR; Echinochloa oryzoides, 504 h, 52.5 gai/ha (Lapost Flowable), 21 DAA, read-out: Visual Weed Control ECHOR Obs): 70%
pest or weed control at 105 g/ha (ECHOR; Echinochloa oryzoides, 504 h, 105 gai/ha (Himeadow WP), 21 DAA, read-out: Visual Weed Control ECHOR Obs): 30%

COc1c(Cl)ccc(-c2nc(C(=O)O)c(Cl)c(N)c2F)c1F [Compound A Acid, 4-amino-3-chloro-6-(4-chloro-2-fluoro-3-methoxyphenyl)-5-fluoropyridine-2-carboxylic acid]
Visual Weed Control Obs (DIGSA; 4.38 gae/ha): 30%
Visual Weed Control Obs (DIGSA; 17.5 gae/ha): 40%
Visual Weed Control (%) - 20 DAA ECHOR Obs (ECHOR; 8.75 gae/ha): 10%
Visual Weed Control (%) - 20 DAA ECHOR Obs (ECHOR; 17.5 gae/ha): 25%
Visual Weed Control (%) - 21 DAA ECHOR Obs (ECHOR; 17.5 gae/ha): 25% and 20%
Visual Weed Control (%) - 20 DAA ECHOR Obs (ECHOR; 35 gae/ha): 25%
Visual Weed Control (%) - 21 DAA ECHOR Obs (ECHOR; 35 gae/ha): 30% and 35%
pest or weed control at 35 g/ha (ECHOR; Echinochloa oryzoides, 504 h, 35 gae/ha, 21 DAA, read-out: Visual Weed Control ECHOR Obs): 30%

COc1c(Cl)ccc(-c2nc(C(=O)OCc3ccccc3)c(Cl)c(N)c2F)c1F [Compound A Benzyl Ester, benzyl ester of 4-amino-3-chloro-5-fluoro-6-(4-chloro-2-fluoro-3-methoxy-phenyl)pyridine-2-carboxylic acid]
Visual Weed Control Obs (DIGSA; 4.38 gae/ha): 50% and 40%
Visual Weed Control Obs (DIGSA; 8.75 gae/ha): 60% and 40% and 30%
Visual Weed Control Obs (DIGSA; 17.5 gae/ha): 30%
Visual Weed Control (%) - 20 DAA ECHOR Obs (ECHOR; 4.38 gae/ha): 10%
Visual Weed Control (%) - 20 DAA ECHOR Obs (ECHOR; 8.75 gae/ha): 20%
Visual Weed Control (%) - 21 DAA ECHOR Obs (ECHOR; 8.75 gae/ha): 15% and 25%
Visual Weed Control (%) - 20 DAA ECHOR Obs (ECHOR; 17.5 gae/ha): 50%
pest or weed control at 4.38 g/ha (ECHOR; Echinochloa oryzoides, 480 h, 4.38 gae/ha, 20 DAA, read-out: Visual Weed Control ECHOR Obs): 10%
pest or weed control at 8.75 g/ha (ECHOR; Echinochloa oryzoides, 480 h, 8.75 gae/ha, 20 DAA, read-out: Visual Weed Control ECHOR Obs): 20%
pest or weed control at 17.5 g/ha (ECHOR; Echinochloa oryzoides, 480 h, 17.5 gae/ha, 20 DAA, read-out: Visual Weed Control ECHOR Obs): 50%
pest or weed control at 8.75 g/ha (ECHOR; Echinochloa oryzoides, 504 h, 8.75 gae/ha, 21 DAA, read-out: Visual Weed Control ECHOR Obs): 15%
pest or weed control at 8.75 g/ha (ECHOR; Echinochloa oryzoides, 528 h, 8.75 gae/ha, 22 DAA, read-out: Visual Weed Control ECHOR Obs): 35%
pest or weed control at 17.5 g/ha (ECHOR; Echinochloa oryzoides, 528 h, 17.5 gae/ha, 22 DAA, read-out: Visual Weed Control ECHOR Obs): 30%

CCCOCCN(C(=O)CCl)c1c(CC)cccc1CC [Pretilachlor, 2-chloro-N-(2,6-diethylphenyl)-N-(2-propoxyethyl)acetamide]
Visual Weed Control Obs (DIGSA; 37.5 gai/ha): 0%
Visual Weed Control Obs (DIGSA; 75 gai/ha): 0%
Visual Weed Control Obs (DIGSA; 150 gai/ha): 0%
Visual Weed Control (%) - 20 DAA ECHOR Obs (ECHOR; 75 gai/ha): 0%
Visual Weed Control (%) - 20 DAA ECHOR Obs (ECHOR; 150 gai/ha): 30%
